Laboratory results published in patent US5656722A, “A^21 -, B^30 - modified insulin derivatives having an altered action profile” (Hoechst Aktiengesellschaft, priority 1988, dated 1997).

Experiments:
[1] = measured by isoelectric focusing; cited from earlier work
[2] = test system: dogs; assay: Action profile (blood glucose) of insulin compositions in dogs; assay type: in vivo
Method: D) Action Profile of an Asp^A21 -Human Insulin-Arg^B31 -Arg^B32-OH Composition in dogs by comparison with human insulin-Arg^B31 -Arg^B32 -OH and basal H insulin Hoechst^(R) =an NPH (neutral protamine Hagedorn) composition containing about 10 μg of Zn^2+.

[3] = pH 4

Substance | Isoelectric point [1] [pH] | Blood glucose as a % of the initial level ([2]; 1 h) [%] | Blood glucose as a % of the initial level ([2]; 2 h) [%] | Blood glucose as a % of the initial level ([2]; 3 h) [%] | Blood glucose as a % of the initial level ([2]; 5 h) [%] | Blood glucose as a % of the initial level ([2]; 7 h) [%] | Action profile (basal profile) ([2]; compared with human insulin-Arg^B31 -Arg^B32 -OH) | Stability [3]
proinsulin: proinsulin | 5.4 |  |  |  |  |  |  | 
Asp^A21 -Human Insulin-Arg^B31 -Arg^B32 -OH |  | 99 | 62 | 51 | 75 | 98 | same advantageous basal profile as human insulin-Arg^B31 -Arg^B32 -OH | stable for a long time under the chosen conditions
human insulin-Arg^B31 -Arg^B32 -OH [Human insulin Arg^B31 --Arg^B32 --OH, reference compound] |  | 77 | 52 | 64 | 85 | 98 |  | 
